The record followed here is the NIST ThermoML archive (doi:10.1016/j.jct.2018.12.039).

The structures appear in SMILES notation. ± gives the expanded uncertainty stated by the source.

For data set [1] the following is noted: 100 kPa, Liquid; for speed of sound: Frequency=2 MHz, Linear variable-path acoustic interferometer; for mass density: Vibrating tube method.
A short description of data set [2]: xn = mol fraction of the nth substance listed. The following applies: 100 kPa, Liquid, x1 = 1; for speed of sound: Frequency=2 MHz, Linear variable-path acoustic interferometer; for mass density: Vibrating tube method.

By speed of sound is commonly meant the propagation velocity of pressure waves in the medium. Broadly, the mass density is mass per unit of volume.

Turning to `Cc1ccccc1O` [2-methylphenol], the figures for the speed of sound in data set [1] (303.15 K) and in data set [1] (313.15 K) were 1488.1 ± 2.5 m/s and 1453 ± 2.5 m/s, respectively. Moreover, the mass density in data set [1] (303.15 K) is 1037.02 ± 1.2 kg/m3; in data set [1] (308.15 K), 1032.58 ± 1.2 kg/m3; in data set [1] (313.15 K), 1028.19 ± 1.2 kg/m3; in data set [1] (318.15 K) it was 1023.82 ± 1.2 kg/m3.

As for `Cc1cccc(O)c1` [3-methylphenol], the speed of sound was determined as 1466.1 ± 2.5 m/s in data set [1] (303.15 K) and 1436.1 ± 2.5 m/s in data set [1] (313.15 K). The mass density in data set [1] (303.15 K) is given as 1025.71 ± 1.2 kg/m3; in data set [1] (308.15 K), 1021.7 ± 1.2 kg/m3; in data set [1] (313.15 K), 1017.69 ± 1.2 kg/m3; in data set [1] (318.15 K) it was 1013.65 ± 1.2 kg/m3.

As to `Cc1ccc(O)cc1` [4-methylphenol], the speed of sound in data set [1] (303.15 K) is 1473 ± 2.5 m/s; in data set [1] (313.15 K), 1440.2 ± 2.5 m/s. The mass density in data set [1] (303.15 K) is reported as 1026.47 ± 1.2 kg/m3; in data set [1] (308.15 K) it was 1022.56 ± 1.2 kg/m3; in data set [1] (313.15 K), 1018.64 ± 1.2 kg/m3; in data set [1] (318.15 K) it was 1014.68 ± 1.2 kg/m3.

With `CCO` [ethanol], the speed of sound turned out to be 1127 ± 2.4 m/s in data set [1] (303.15 K) and 1094 ± 2.4 m/s in data set [1] (313.15 K). Besides, the mass density was determined as 781.08 ± 1.2 kg/m3 in data set [1] (303.15 K), 776.59 ± 1.2 kg/m3 in data set [1] (308.15 K), 772.23 ± 1.2 kg/m3 in data set [1] (313.15 K) and 767.61 ± 1.2 kg/m3 in data set [1] (318.15 K).

For the compound `CCO` [ethanol] + Cc1ccc(O)cc1, the speed of sound in data set [2] (303.15 K) is on record as 1127 ± 2.4 m/s; in data set [2] (313.15 K) it was 1094 ± 2.4 m/s. The mass density in data set [2] (303.15 K) stood at 781.08 ± 1.2 kg/m3; in data set [2] (308.15 K), 776.59 ± 1.2 kg/m3; in data set [2] (313.15 K), 772.23 ± 1.2 kg/m3; in data set [2] (318.15 K), 767.61 ± 1.2 kg/m3.

Regarding `CCO` [ethanol] + Cc1cccc(O)c1, the speed of sound in data set [2] (303.15 K) is reported as 1127 ± 2.4 m/s; in data set [2] (313.15 K), 1094 ± 2.4 m/s. The mass density in data set [2] (303.15 K) was found to be 781.08 ± 1.2 kg/m3; in data set [2] (308.15 K) it was 776.59 ± 1.2 kg/m3; in data set [2] (313.15 K), 772.23 ± 1.2 kg/m3; in data set [2] (318.15 K) it was 767.61 ± 1.2 kg/m3.

Consider `CCO` [ethanol] + Cc1ccccc1O, for which the results for the speed of sound in data set [2] (303.15 K) and in data set [2] (313.15 K) were 1127 ± 2.4 m/s and 1094 ± 2.4 m/s, respectively. In addition, the mass density in data set [2] (303.15 K) turned out to be 781.08 ± 1.2 kg/m3; in data set [2] (308.15 K) it was 776.59 ± 1.2 kg/m3; in data set [2] (313.15 K) it was 772.23 ± 1.2 kg/m3; in data set [2] (318.15 K) it was 767.61 ± 1.2 kg/m3.
